Data reported in patent publication US11198741B2, “Medicines for topic use based on sulfated hyaluronic acid as activating or inhibiting agent of the cytokine activity” (Fidia Farmaceutici S.p.A., priority 2009, dated 2021).

Assays:
[1] = Hydrating and protective activity of creams on the forearm (corneometer, Visioscan); assay type: in vivo; settings: human subjects
Protocol: 20 human subjects aged between 18 and 70 years, with no skin pathologies and pharmacological treatment underway, were treated daily with certain and constant quantities of the products tested, at the level of the forearm. The experimental products were: control: consisting of a hydrating base cream base cream (as control) containing HA 200 KD 01% base cream (as control) containing HAS3 01%, prepared according to Example 1-2 […]

IL-7 = test: Protein synthesis of IL-7 in human PBMC (SearchLight array); settings: not stimulated or stimulated with LPS or PHA (10 μg/ml), 24 hours, FIG. 7: 1 mg/ml, vs HA
Protocol: For these experimentations, mononucleate cells of human peripheral blood (PBMC) were adopted, deriving from various donors for evaluating the effect of HAS on the production of the cytokines listed above, using:
The separation of the PBMC (Bøyum A., Scand J Clin Lab Invest 21 Suppl, 1968, 97:77-89) was effected using the product Ficoll-Paque PLUS (GE Healthcare) and following the protocol indicated by the supplier. At day zero 100,000 cells were plated per well (using plates with 96 wells) in 200 μl of medium RPMI 1640, to which 10% of fetal bovine serum, HEPES 10 mM, Glutamine 2 mM, 1% Penicillin-Streptomycin 100 U/ml, had been added. […] The cells were treated separately with the three compounds at a concentration of 0.1 mg/ml or 1 mg/ml. After 24 hours of incubation at 37° C. (5% CO2), 100 μl of supernatant were taken from each well in order to analyze the production of IL-2, IL-7, IL-10 and IL-12.
The quantification of the inflammation mediators was effected by means of the SearchLight® technology, using a Custom Human 9-flex Array plate following the protocol indicated by the supplier in the technical card.

IL-1 receptor = biological target: T1, IL-1 receptor (Mus musculus, UniProt P13504); test: Inhibition of the binding of 125I-IL-1 to its receptor in 3T3 fibroblasts (Radioligand Binding); settings: 3T3 cells of mouse, 125I-IL-1 10 pM, sample 1 mg/ml, 37° C. 2 hours; both medium and low MW
T1 construct: the line of murine fibroblasts 3T3 was used, sensitive to the cytotoxic activity of IL-1, expressing its relative receptor; endogenous in cells; host or cells: 3T3 murine fibroblasts (whole cells)
T1 sequence (P13504 20-576): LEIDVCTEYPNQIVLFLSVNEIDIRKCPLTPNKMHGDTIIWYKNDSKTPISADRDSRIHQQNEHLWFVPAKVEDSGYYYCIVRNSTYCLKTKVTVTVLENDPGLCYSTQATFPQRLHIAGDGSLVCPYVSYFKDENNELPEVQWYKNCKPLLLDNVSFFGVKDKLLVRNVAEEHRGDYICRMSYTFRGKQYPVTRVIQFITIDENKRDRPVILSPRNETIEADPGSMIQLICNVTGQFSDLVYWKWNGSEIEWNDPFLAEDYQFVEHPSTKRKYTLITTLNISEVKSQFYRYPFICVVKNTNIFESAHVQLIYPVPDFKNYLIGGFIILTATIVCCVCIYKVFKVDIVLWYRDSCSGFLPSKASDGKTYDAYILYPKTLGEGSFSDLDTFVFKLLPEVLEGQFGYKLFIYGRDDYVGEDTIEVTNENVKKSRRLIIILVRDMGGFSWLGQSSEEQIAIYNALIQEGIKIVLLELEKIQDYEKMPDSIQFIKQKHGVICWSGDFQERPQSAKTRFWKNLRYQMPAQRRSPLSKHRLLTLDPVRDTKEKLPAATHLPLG
Text: These experiments were effected to evaluate the effectiveness of the samples tested (prepared according to Examples 1-3 and 4) on the capacity of inhibiting the binding of IL-1 to its receptor expressed by 3T3 cells of mouse, normally used in vitro for this type of experiment, carried out with iodinated cytokine components for an evaluation in Radioligand Binding assays. The experimental procedure was effected as described in Chin J et al., J Exp Med, 1987, 165:70-86. In short, the line of murine fibroblasts 3T3 was used, sensitive to the cytotoxic activity of IL-1, expressing its relative receptor. […] At the end of the incubation, the cells were washed with phosphate buffer, then dissolved in 2.5 M of NaOH and counted in a γ-counter.

[2] = tested on: Cytomegalovirus (CMV: AD-169 and Davis strain); test: Inhibition of Cytomegalovirus plaque formation in HEL cells; assay type: cell-based; settings: numbers only in FIG. 11
Protocol: The activity of the samples tested was determined by evaluating the inhibition of the cytopathogenicity determined by Cytomegalovirus (CMV: AD-169 and Davis strain) using the previous protocol. The antiviral activity was tested vs HEL cells (pulmonary embryonic cells) and was expressed as the concentration required for inhibiting the number of plaques formed by the above virus by 50%.

TNF receptor = test: Inhibition of the binding of 125I-TNF to its receptor in U937 cells (Radioligand Binding); set-up: species or system human; settings: 125I-TNF 0.028 nM, sample 1 mg/ml, 4° C. 3 hours, medium and low MW
Text: These experiments were effected to evaluate the effectiveness of the samples tested (prepared according to Examples 1-4) on the capacity of inhibiting the binding of TNF to its receptor expressed by cells of the I.S. normally used in vitro for this type of experiment, carried out with iodinated cytokine components for an evaluation in Radioligand Binding assays. The experimental procedure was effected as described in Baglioni C. et al., J Biol Chem, 1985, 260:13395-13397. In short, the line of human histiocytes of the lymphoma U937 was used, with characteristics of monocytes sensitive to the cytotoxic activity of TNF, expressing its relative receptor. […] At the end of the incubation, the cells were centrifuged with dibutylphthalate/dinonylphthalate 2/1 and the pellet obtained was counted in a γ-counter.

Substance: sulfated hyaluronic acid degree 3 [HAS3]
- skin roughness index ([1]; after 7 days of treatment, base cream containing HAS3 01%, with respect to the controls): significantly diminished
- hydrating effect of the skin (corneometer) ([1]; daily, T7 vs T0, base cream containing HAS3 01%, vs base cream and cream containing HA): greater hydrating effect
- synthesis of IL-7 (IL-7): significantly reducing
- inhibition of the binding of IL-1 to its receptor (IL-1 receptor): 30%
- antiviral activity vs Cytomegalovirus (inhibition of the number of plaques) [2]: clear and significant positive result
- inhibition of the binding of TNF to its receptor (TNF receptor): 100%
